Measurements from patent publication US12084708B1, “Acoustic wave resonator with active shunt capacitance cancellation and systems thereof” (National Technology & Engineering Solutions of Sandia, LLC, priority 2019, dated 2024).

Experiments:
E. coli MG1655 = test: Dose response growth curve analysis (OD600), MG1655; type: cell-based
Experimental: To perform an initial test of the sensors' ability to detect response of bacteria to antibiotics, common molecular cloning strains and one pseudo-wild-type strain of E. coli were selected. TOP10, DH5α, and MG1655 strains are sensitive to kanamycin, ampicillin, or chloramphenicol in the absence of a plasmid conferring resistance. Dose response growth curve analysis was performed to determine appropriate concentrations of antibiotic to use with each strain and plasmid combination.

E. coli = settings: final concentration 1M; positive control for cell death
Experimental: For experiments in which bacteria were applied to the resonator devices, cultures were harvested at late log to early stationary phase. Cells were centrifuged at 5000× g for 5 minutes then resuspended in either fresh LB medium or phosphate-buffered saline. For antibiotic treatment, 200 µg/ml kanamycin was added to cells in the sensor devices.

## CC1(C)S[C@@H]2[C@H](NC(=O)[C@H](N)c3ccccc3)C(=O)N2[C@H]1C(=O)O [ampicillin]
E. coli MG1655; E. coli MG1655 cultures, varying doses, OD600, FIG. 16B
  concentration at which growth inhibition was observed: more than 1.56 μg/mL

## NC[C@H]1O[C@H](O[C@H]2[C@H](O)[C@@H](O[C@H]3O[C@H](CO)[C@@H](O)[C@H](N)[C@H]3O)[C@H](N)C[C@@H]2N)[C@H](O)[C@@H](O)[C@@H]1O [kanamycin]
E. coli MG1655; E. coli MG1655 without plasmid, full 24 hr culture time, OD600, FIG. 17
  minimum concentration that completely blocked growth: 25 µg/mL

## [Na+].[OH-] [sodium hydroxide]
E. coli
  lysis of bacteria: Complete lysis
